Results: patent publication US8530501B2, “Salts and crystalline forms of a factor Xa inhibitor” (Millennium Pharmaceuticals, Inc., priority 2009, dated 2013)

Assays:
[1] = Gravimetric Vapour Sorption (GVS); assay type: physicochemical; settings: for physical stability after moisture exposure (XRPD pre- and post-GVS): exposed up to 90% RH at 25° C.; for Hygroscopicity: moisture absorbed by weight: between 0 and 90% relative humidity
Experimental: Sorption isotherms were obtained using a SMS HT-DVS moisture sorption analyser by Surface Measurement Systems Limited, Middlesex, UK, controlled by SMS Analysis Suite software. The sample temperature was maintained at 25° C. by the instrument controls. The humidity was controlled by mixing streams of dry and wet nitrogen, with a total flow rate of 400 mL/min. The relative humidity was measured by a calibrated optical dew point transmitter (dynamic range of 0.5-100% RH), located near the sample. The weight change, (mass relaxation) of the sample as a function of % RH was constantly monitored by the microbalance (accuracy±0.005 mg).
Typically 5-20 mg of sample was placed in a tared mesh stainless steel liner within a stainless steel pan under ambient conditions. The sample was loaded and unloaded at 40% RH and 25° C. (typical room conditions).
A moisture sorption isotherm was performed as outlined in Table 13 (2 scans giving 1 complete cycle). The standard isotherm was performed at 25° C. at 10% RH intervals over a 0.5-90% RH range.
The sample was recovered after completion of the isotherm and re-analysed by XRPD.

[2] = Thermodynamic aqueous solubility by HPLC (filtration method); assay type: physicochemical; settings: for pH: pH of the solubility suspension; for pH (with aqueous solubility): pH of suspension
Experimental: The aqueous thermodynamic solubility of selected salt forms was measured using the filtration method as described in Example 10.
The suspension was equilibrated at 25° C. for 24 hours then the pH was measured. The suspension was then filtered through a glass fiber C filter into a 96 well plate. The filtrate was then diluted by a factor of 101. Quantitation was by HPLC with reference to a standard solution of approximately 0.1 mg/mL in DMSO. Different volumes of the standard, diluted and undiluted sample solutions were injected. The solubility was calculated using the peak areas determined by integration of the peak found at the same retention time as the principal peak in the standard injection.

[3] = Stability on storage at 40° C./75% RH (XRPD, HPLC purity); assay type: physicochemical; settings: for stability with respect to solid form and chemical purity: 40° C./75% RH (elevated humidity and temperature); for crystallinity upon storage (XRPD): 40° C./75% RH, no change in solid form; for Purity post 40° C./75% RH: HPLC purity after seventeen days at 40° C./75% RH; for Purity as isolated: HPLC purity pre 40° C./75% RH; for drop in chemical purity: upon storage at 40° C./75% RH; for physical stability: 6 months of storage at 40° C./75% RH
From the text: […] No significant thermal events were seen before degradation began for both the phosphate salt and the 1-hydroxy-2-naphthoate salts.

[4] = Pharmacokinetics in monkey after IV and PO administration; assay type: in vivo, male rhesus monkeys; settings: PO 5 mg/kg, dose-normalized AUC(0-inf), mean ± SD
Experimental: (§1) For the dog and monkey study, Compound I was also used. An IV and PO dose of Compound I (1.0 and 5.0 mg/kg, respectively) was prepared. The IV dose was formulated similarly to that used in the rat study (50% PEG300 in water). The PO dose was suspended in 0.5% methylcellulose at a concentration of 1.0 mg/mL with a final pH of approximately 3.50.
(§2) A total of six male Sprague-Dawley rats (n=3/dosing group) from Charles River Laboratories (Hollister, Calif.), three male beagle dogs from Marshall BioResources (North Rose, N.Y.) and three male rhesus monkeys were utilized. […]
(§3) All animals were dosed based on individual weights with a PO gavage volume of 5.0 mL/kg and an IV bolus dose volume of 1.0 mL/kg. […] At collection times, urine volume and water consumption was recorded. […]
(§4) Plasma and urine samples were analyzed for Compound I concentration using a liquid chromatography tandem mass spectrometry (LC/MS/MS). […] The peak areas of the m/z 411→250 product ion (Compound I) were measured against those of the m/z 470→342 product ion (N-(2-(5-chloropyridin-2-ylcarbaomoyl)-4-methoxyphenyl)-4-(N,N-dimethylcarbamimidoyl)-2-fluorobenzamide) in positive ion mode. […]
(§5) Sample Compound I concentrations below the lower limit of quantitation (LLQ) were reported as <0.500 ng/mL. […]

[5] = Pharmacokinetics in dog after IV and PO administration; assay type: in vivo, male beagle dogs; settings: PO 5 mg/kg, dose-normalized AUC(0-inf), mean ± SD
Experimental: as §1, §2, §3, §4, §5

[6] = Pharmacokinetics in rat after IV and PO administration; assay type: in vivo, male Sprague-Dawley rats; settings: mean ± SD
Experimental: Compound I was used in the rat investigation. An intravenous (IV) and oral (PO) dose of Compound I (1.0 and 10 mg/kg, respectively) was prepared. The IV dose was solubilized in 50% PEG300 to yield a final concentration of 1.0 mg/mL with a final pH of 5.13. The PO dose was suspended in 0.5% methylcellulose at a concentration of 2.0 mg/mL with a final pH of 2.70.
as §2, §3, §4, §5

[7] = Thermodynamic aqueous solubility by HPLC (ultracentrifugation method); assay type: physicochemical
Experimental: The physical chemical properties of Forms A and B were determined according to the procedures below and the data are summarized in Table 12.
The mixture was allowed to equilibrate for at least 48 hours at 37° C. under mild agitation. At each 24-48 hour interval, an aliquot was removed and the solution was separated from the solid via ultracentrifugation at >60,000 rpm for 20 min and then analyzed by HPLC for the concentration of the compound in the supernatant. Upon equilibration (concentration plateau is reached), the concentration was reported as solubility. This method is the preferred method in determining solubility as it attains the equilibrium and is measurement of the thermodynamic solubility.

[8] = pKa determination (Sirius GlpKa); assay type: physicochemical; settings: 25° C.
Experimental: Data were collected on a Sirius GlpKa instrument by Sirius Analytical Ltd., UK with a D-PAS attachment. Measurements were made at 25° C. in aqueous solution by UV and in methanol water mixtures by potentiometry. The titration media was ionic-strength adjusted (ISA) with 0.15 M KCl (aq). The values found in the methanol water mixtures were corrected to 0% co-solvent via a Yasuda-Shedlovsky extrapolation. The data were refined using Refinement Pro software v1.0. Prediction of pKa values was made using ACD pKa prediction software v9.

[9] = Log P and Log D determination (potentiometric titration, octanol:ISA water); assay type: physicochemical; settings: octanol/ionic-strength adjusted (ISA) water
From the text: Data were collected by potentiometric titration on a Sirius GlpKa instrument using three ratios of octanol:ionic-strength adjusted (ISA) water to generate Log P, Log Pion, and Log D values. The data were refined using Refinement Pro software v1.0. Prediction of Log P values was made using ACD v9 and Syracuse KOWWIN™ v1.67 software by Syracuse Research Corp., Syracuse, N.Y., USA.

[10] = Table 8, filtration method, water, 25° C., 24 hours
[11] = listed as 1-Hydroxy-2-naphthoate 2-5

| SMILES | hygroscopicity (GVS) [1] | Aqueous solubility [2, 10] [µg/mL] | pH ([2]; Table 8) | stability with respect to solid form and chemical purity [3] | crystallinity upon storage (XRPD) [3] | physical stability [3] | pH of saturated solution [7] | Aqueous Solubility (Ultracentrifugation Method) ([7]; in simulated gastric fluid) | Aqueous Solubility (Ultracentrifugation Method) ([7]; in simulated intestinal fluid) [mg/mL in simulated] | Aqueous Solubility (Ultracentrifugation Method) ([7]; in water) [mg/mL in water] | Hygroscopicity: moisture absorbed by weight [1] | physical stability after moisture exposure (XRPD pre- and post-GVS) [1] | other results |
| --- | --- | --- | --- | --- | --- | --- | --- | --- | --- | --- | --- | --- | --- |
| O=C(NCc1cn(-c2ccc(-n3ccccc3=O)cc2)cn1)c1ccc(Cl)s1 [1-Hydroxy-2-naphthoate Form 1] | Neither salts showed hygroscopicity | 50 | 6.0 | stable | loss of crystallinity |  |  |  |  |  |  |  | physical stability after moisture exposure (XRPD pre- and post-GVS) ([1]; listed as 1-hydroxy-2-naphthoate salt of Compound I): substantially stable; hysteresis in GVS ([1]; listed as 1-hydroxy-2-naphthoate salt Form 1): showed any hysteresis; pH (with aqueous solubility) ([2]; salts formed under reflux conditions, listed as 1-hydroxy-2-napthoic acid MeCN): pH = 5.99; Aqueous solubility ([2]; salts formed under reflux conditions, water, listed as 1-hydroxy-2-napthoic acid MeCN): 44 µg/mL; pH (with aqueous solubility) ([2]; salts from 100-mg maturation experiments, listed as 2-5): pH = 6.50; Aqueous solubility ([2]; salts from 100-mg maturation experiments, water, listed as 2-5): 68 µg/mL; Purity post 40° C./75% RH [3, 11]: 97.7%; Purity as isolated [3, 11]: 98.2%; drop in chemical purity ([3]; listed as 1-hydroxy-2-naphthoate salt): 0.5% |
| O=C(NCc1cn(-c2ccc(-n3ccccc3=O)cc2)cn1)c1ccc(Cl)s1 [Compound I, 5-chloro-N-((1-(4-(2-oxopyridin-1(2H)-yl)phenyl)-1H-imidazol-4-yl)methyl)thiophene-2-carboxamide] |  |  |  |  |  | physically stable |  |  |  |  |  |  | AUC/D [4]: 8430 ± 3449 kg·h/mL; AUC/D [5]: 1095 ± 295 kg·h/mL; Aqueous solubility ([2]; Table 8, filtration method, water, 25° C., 24 hours, listed as Free base): 0.8 µg/mL; pH ([2]; Table 8, listed as Free base): 7.8; Dose excreted unchanged in urine ([6]; IV 1 mg/kg): 0.248 ± 0.019%; AUC/D ([6]; PO 10 mg/kg, dose-normalized AUC(0-inf)): 6859 ± 1249 kg·h/mL |
| O=C(NCc1cn(-c2ccc(-n3ccccc3=O)cc2)cn1)c1ccc(Cl)s1 [Mesylate Form A] |  | 5100 | 1.8 |  |  | physically stable | 3.3 | 1.3 mg/mL in simulated gastric | 0.02 | 2.0 | Absorbs approximately 2.5% | good physical stability | GVS uptake ([1]; at 90% RH): 2.8 wt %; hysteresis in GVS ([1]; listed as mesylate salt): no hysteresis evident; solubility at 24 h ([2]; water, 25 °C, pH 1.8, water, thermodynamic from solid, at pH 1.8): 5100 µg/mL; pKa [8]: 4.46; logP [9]: 2.25; logD ([9]; pH 7.4): 2.85 |
| O=C(NCc1cn(-c2ccc(-n3ccccc3=O)cc2)cn1)c1ccc(Cl)s1 [Mesylate Form B] |  |  |  |  |  |  | 2.7 | 12 mg/mL in simulated gastric | 0.06 | 8.5 | Absorbs approximately 2.5% | good physical stability |  |
| O=C(NCc1cn(-c2ccc(-n3ccccc3=O)cc2)cn1)c1ccc(Cl)s1 [Phosphate Form 2] | Neither salts showed hygroscopicity | 4100 | 2.0 | stable |  |  |  |  |  |  |  |  | pH (with aqueous solubility) ([2]; salts formed under reflux conditions, listed as Phosphoric acid MeCN): pH = 2.00; Aqueous solubility ([2]; salts formed under reflux conditions, water, listed as Phosphoric acid MeCN): 4100 µg/mL |
| O=C(NCc1cn(-c2ccc(-n3ccccc3=O)cc2)cn1)c1ccc(Cl)s1 [Phosphate Form 3] |  | 6900 | 2.2 | stable | loss of crystallinity |  |  |  |  |  |  |  | pH (with aqueous solubility) ([2]; salts from 100-mg maturation experiments, listed as 2-4): pH = 2.18; Aqueous solubility ([2]; salts from 100-mg maturation experiments, water, listed as 2-4): 6900 µg/mL; Purity post 40° C./75% RH ([3]; listed as Phosphate 2-4): 97.3%; Purity as isolated ([3]; listed as Phosphate 2-4): 98.0%; drop in chemical purity [3]: 0.7% |
